Here are results for seven compounds from US10066238B2, “Methods for producing antibodies” (priority 2013, dated 2018).

Assay [1] has as its target recombinant hemagglutinin (HA) (A/New Caledonia/20/99). The assay can be described thus: SPR analysis of captured CR6261. It is filed as binding, influenza H1N1. The settings on record: HA as analyte, bivalent analyte kinetics fit, read-out: equilibrium dissociation constant, KD.
The subject of assay [2] is SF162 pseudovirus (clade B). Conditions: reported by Wu et al. (16); cited from earlier work.
The subject of assay [3] is Du156 pseudovirus (clade C). Conditions: reported by Wu et al. (16); cited from earlier work.
Assay [4] concerns Q769.h5 pseudovirus (clade A). The settings on record: reported by Wu et al. (16); cited from earlier work.
Assay [5] relates to HIV-1 BaL. The settings on record: topical gel formulation; CCR5-using HIV-1 BaL; Veselinovic, et al.; cited from earlier work.
The subject of assay [6] is SS1196.1 pseudovirus (clade B). The experiment in a line: HIV-1 neutralization assay (Env-pseudotyped virus, Luc reporter). Type of assay: cell-based.
Assay [7] concerns Du156 pseudovirus (clade C). The assay is described as above. Type of assay: cell-based.
In assay [8] the test system is Q769.h5 pseudovirus (clade A). The assay is described as above. It is filed as cell-based.
The test system of assay [9] is SF162 pseudovirus (clade B). Described as above. Type of assay: cell-based.
For assay [10], the target named is FcγRI (Homo sapiens, UniProt P12314). The experiment in a line: FcγRI binding in ELISA and in flow cytometry. Conditions: data not shown.
FcγRI, sequence (P12314 16-374, species assumed): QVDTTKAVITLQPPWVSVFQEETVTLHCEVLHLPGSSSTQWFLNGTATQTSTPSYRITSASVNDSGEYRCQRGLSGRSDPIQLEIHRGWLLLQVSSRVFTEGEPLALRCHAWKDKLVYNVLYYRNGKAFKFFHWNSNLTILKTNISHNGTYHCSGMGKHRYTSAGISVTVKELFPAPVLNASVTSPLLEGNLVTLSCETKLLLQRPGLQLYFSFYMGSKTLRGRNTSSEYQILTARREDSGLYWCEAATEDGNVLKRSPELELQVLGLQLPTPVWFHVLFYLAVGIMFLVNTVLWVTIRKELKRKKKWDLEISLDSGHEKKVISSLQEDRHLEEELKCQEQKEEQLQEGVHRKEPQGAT
[11] abbreviates: TZM-b1 cells, TFV concentration in combination, mean ± SEM, read-out: IC50 in a respective combination with VRC01p.
Setting [12] is: TZM-b1 cells, TFV, mean ± SEM, read-out: IC50 when used individually.
[13] abbreviates: read-out: IC50 in a respective combination with VRC01p, TZM-b1 cells, GRFT, MVC concentration in combination, mean ± SEM.
Where [14] appears, read: read-out: IC50 when used individually, TZM-b1 cells, GRFT, MVC, mean ± SEM.
[15] abbreviates: TZM-b1 cells, GRFT, MVC concentration in combination, mean ± SEM, read-out: IC50 in a respective combination with VRC01p.
[16] abbreviates: TZM-b1 cells, GRFT, MVC, mean ± SEM, read-out: IC50 when used individually.

Where two headings read alike, the source gives them in different places.

Regarding “CR6261: anti-influenza bnMAb CR6261 IgG1 (PDB ID: 3GBM) expressed in N. benthamiana”, the Kd in assay [1] worked out at 0.055 ± 0.0036 nM.
On to “VRC01HEK: HEK293F cell-produced bnMAb VRC01”, for which the entries for the “VRC01HEK IC50” value in [2], in assay [3] and in assay [4] were 0.139 µg/mL, 0.089 µg/mL and 0.084 µg/mL, respectively.
Turning to “VRC01: CD4-binding site (CD4bs)-specific bnMAb isolated from a slowly progressing HIV-1 infected donor”, in [5], the “protection against vaginal challenge” value is listed as “protected”.
Regarding `C[C@H](Cn1cnc2c(N)ncnc21)OCP(=O)(O)O` [TFV, tenofovir], the IC50 in [6] (setting [11]) worked out at 1920 ± 340 nM; in assay [6] (setting [12]), 7650 ± 2390 nM; in [7] (setting [11]) it was 60 nM; in assay [7] (setting [12]), 7140 ± 1910 nM; in [8] (setting [11]), 2090 ± 390 nM; in [8] (setting [12]), 21200 ± 3530 nM. Further, the results for the IC50 in assay [9] (setting [11]) and in [9] (setting [12]) were 880 ± 400 nM and 2700 ± 1020 nM, respectively. Also, the “dose reduction index (DRI) in a respective combination with VRC01p” value (shortened to “dose reduction index (DRI)”) in assay [6] (mean ± SEM) is recorded as 3.76 ± 0.68; in assay [7] (mean ± SEM) it was 3.01 ± 0.65; in assay [8] (mean ± SEM), 8.40 ± 1.41; in [9] (mean ± SEM) it was 2.10 ± 0.34.
For the compound maraviroc [MVC], the “dose reduction index (DRI)” value came to 5.06 ± 0.39 in [6] (mean ± SEM), 5.93 ± 0.96 in assay [7] (mean ± SEM), 4.40 ± 0.71 in [8] (mean ± SEM) and 4.21 ± 0.25 in [9] (mean ± SEM). The IC50 in assay [6] (setting [13]) amounted to 15.6 ± 8.87 nM; in assay [6] (setting [14]), 96.4 ± 28.5 nM; in assay [7] (setting [13]), 32.2 ± 11.5 nM; in assay [7] (setting [14]) it was 199 ± 40.4 nM; in assay [8] (setting [13]) it was 5.27 ± 1.12 nM; in assay [8] (setting [14]), 29.6 ± 7.75 nM. Moreover, the IC50 in assay [9] (setting [13]) turned out to be 18.3 ± 7.9 nM; in assay [9] (setting [14]) it was 54.9 ± 29.3 nM.
For the compound griffithsin [GRFT], the IC50 in assay [6] (setting [15]) was 0.01 ± 0.001 nM; in assay [6] (setting [16]), 0.04 ± 0.01 nM; in assay [7] (setting [15]) it was 0.003 ± 0.0004 nM; in assay [7] (setting [16]), 0.02 ± 0.001 nM; in assay [8] (setting [15]), 0.79 ± 0.19 nM; in assay [8] (setting [16]), 12.4 ± 2.88 nM. Also, the IC50 was determined as 0.1 ± 0.03 nM in [9] (setting [15]) and 0.59 ± 0.34 nM in assay [9] (setting [16]). In addition, the “dose reduction index (DRI)” value in [6] (mean ± SEM) is 2.98 ± 0.72; in [7] (mean ± SEM), 6.29 ± 0.66; in assay [8] (mean ± SEM) it was 11.3 ± 2.95; in [9] (mean ± SEM), 3.19 ± 1.16.
Regarding “VRC01p: Nicotiana plant-expressed anti-HIV-1 bnMAb VRC01 IgG1 from the L-(KP6pp)-H construct”, the “binding to FcγRI compared with a human IgG1 isotype control” value in assay [10] is reported as “nearly an order of magnitude less”.
